The series relates to MTHFD2. Description: MTHFD2 knockdown efficiency by qPCR and Western analyses after siRNA transfection. The series is classed as cell-based. To be noted: LNCaP cells, mRNA by qRT-PCR. Here is the method:
FIG. 1: MTHFD2 knockdown inhibits growth of PCa cells, PDX-derived organoids, and tumor xenografts. A. MTHFD2 knockdown efficiency was determined in LNCaP and DU145 cells that were transfected with either scrambled siRNA or two independent MTHFD2-specific siRNAs for 48 hours by both qPCR and Western analyses. B. LNCaP, VCaP, or 22Rv1 cells transfected with control or MTHFD2-specific siRNAs were cultured for the indicated times, and cell numbers were determined by trypan blue staining. *p<0.01. MTHFD2 knockdown hinders colony (C-D) and prostatosphere (E) formation ability of PCa cells. F. Viability of normal prostate cells is not affected by MTHFD2 knockdown. G. MTHFD2 expression and knockdown efficiency in various LuCaP organoids were assessed by Western analysis.
FIG. 4: A. LNCaP cells were transfected with MTHFD2 (siMTHFD2 #1) or non-targeting control siRNAs. Cells were cultured for the indicated time points, collected, and MTHFD2 mRNA levels were determined by qRT-PCR. […] B. LNCaP and DU145 cells were reverse transfected with either control siRNA or two independent siRNAs against MTHFD2. After 48 hours, relative cell viability was determined using the CCK8 assay. C. Bar graph showing quantification of PDX derived organoids representing the number of organoids per field in FIG. 1H.
Briefly, cells were reverse transfected using Lipofectamine RNAiMAX transfection reagent (ThermoFisher) and plated into 96-well or 6-well plates. Cells in 6-well plates were cultured for the indicated times, trypsinized, stained with trypan blue, and counted using a hemocytometer. […] Cells plated into the 96-well plates were cultured for 48 hrs and cell viability was measured using the CCK-8 kit (Bimake, Munich, Germany).
RNA extraction, reverse transcription and quantitative polymerase chain reaction (qPCR) were performed as described previously (Sheng X, Arnoldussen Y J, Storm M. Tesikova M, Nenseth H Z, Zhao S, et al. Divergent androgen regulation of unfolded protein response pathways drives prostate cancer. EMBO Mol Med 2015; 7:788-801). […]
Background: In qPCR the cycle at which signal appears reflects the starting amount.

As to “siMTHFD2-2: MTHFD2-specific siRNA CAGGCCAGCTCAAGAAGCAAA; location 1140; positive control in Example 3 (chain 2 CAGGCCAGCUCAAGAAGCAAA; chemistry not given here; one strand in two spellings)”, the “MTHFD2 knockdown, maximal” value (72 hours post-transfection) was around 80%. Where the note is “time course after transfection”, the “return of MTHFD2 to basal levels” value is at most 12 days and the “time MTHFD2 remained significantly downregulated” value is reported as “more than one week”.

The values above are taken from US20240287525A1, “COMPOSITIONS AND METHODS FOR TREATING CANCER” (OSLO UNIVERSITETSSYKEHUS HF, priority 2021, published 2024).
